Laboratory results as given in US20260356819A1, “OXOISOINDOLINYL-SUBSTITUTED […] DERIVATIVE AND USE THEREOF” (GLUETACS THERAPEUTICS (SHANGHAI) CO., LTD., priority 2023, published 2026).

Assays:
Assay type in all cases: cell-based
Conditions in all cases: compounds at 50 nM and 500 nM
IKZF3 = molecular target: T1, IKZF3 (Homo sapiens, UniProt Q96SW2+Q9UKT9); experiment: Western blot degradation of IKZF3 in hPBMCs (24 h)
T1 construct: The supernatant was aspirated as the extracted total cell protein; endogenous in cells; host or cells: human peripheral blood mononuclear cells (hPBMCs)
Procedure, shortened: (§1)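 Immunoblot densitometry quantifies target loss in hPBMCs after a 24 h compound exposure (50 nM, 500 nM). Percent remaining is normalised band intensity; DC50 is the concentration giving half the DMSO-control band grayscale.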

CK1α = molecular target: T2, CK1α (Homo sapiens, UniProt P48729+Q96SW2); experiment: Western blot degradation of CK1α in hPBMCs (24 h)
T2 construct: The supernatant was aspirated as the extracted total cell protein; endogenous in cells; host or cells: human peripheral blood mononuclear cells (hPBMCs)
T2 sequence (P48729 whole entry): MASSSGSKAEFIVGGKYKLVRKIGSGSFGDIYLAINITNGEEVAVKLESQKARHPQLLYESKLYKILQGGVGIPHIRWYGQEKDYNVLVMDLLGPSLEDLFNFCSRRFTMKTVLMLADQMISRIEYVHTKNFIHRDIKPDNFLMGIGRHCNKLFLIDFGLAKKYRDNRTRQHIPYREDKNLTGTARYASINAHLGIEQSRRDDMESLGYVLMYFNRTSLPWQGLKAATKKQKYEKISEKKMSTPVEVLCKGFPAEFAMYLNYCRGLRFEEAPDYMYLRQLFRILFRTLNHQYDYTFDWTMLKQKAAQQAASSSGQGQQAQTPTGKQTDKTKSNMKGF
T2 sequence (Q96SW2 whole entry): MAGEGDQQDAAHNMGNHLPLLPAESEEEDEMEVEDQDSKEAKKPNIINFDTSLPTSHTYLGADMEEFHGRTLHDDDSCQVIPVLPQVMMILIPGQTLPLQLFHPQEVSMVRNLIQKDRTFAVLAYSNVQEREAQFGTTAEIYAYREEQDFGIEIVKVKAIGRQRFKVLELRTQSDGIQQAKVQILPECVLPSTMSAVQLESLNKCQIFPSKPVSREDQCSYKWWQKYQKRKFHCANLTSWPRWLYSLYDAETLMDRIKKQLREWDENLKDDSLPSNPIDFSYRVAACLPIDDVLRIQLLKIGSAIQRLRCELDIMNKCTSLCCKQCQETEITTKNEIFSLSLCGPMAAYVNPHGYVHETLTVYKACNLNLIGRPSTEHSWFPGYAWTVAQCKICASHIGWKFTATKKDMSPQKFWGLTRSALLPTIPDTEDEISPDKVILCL
T2 sequence (Q16531 whole entry partner): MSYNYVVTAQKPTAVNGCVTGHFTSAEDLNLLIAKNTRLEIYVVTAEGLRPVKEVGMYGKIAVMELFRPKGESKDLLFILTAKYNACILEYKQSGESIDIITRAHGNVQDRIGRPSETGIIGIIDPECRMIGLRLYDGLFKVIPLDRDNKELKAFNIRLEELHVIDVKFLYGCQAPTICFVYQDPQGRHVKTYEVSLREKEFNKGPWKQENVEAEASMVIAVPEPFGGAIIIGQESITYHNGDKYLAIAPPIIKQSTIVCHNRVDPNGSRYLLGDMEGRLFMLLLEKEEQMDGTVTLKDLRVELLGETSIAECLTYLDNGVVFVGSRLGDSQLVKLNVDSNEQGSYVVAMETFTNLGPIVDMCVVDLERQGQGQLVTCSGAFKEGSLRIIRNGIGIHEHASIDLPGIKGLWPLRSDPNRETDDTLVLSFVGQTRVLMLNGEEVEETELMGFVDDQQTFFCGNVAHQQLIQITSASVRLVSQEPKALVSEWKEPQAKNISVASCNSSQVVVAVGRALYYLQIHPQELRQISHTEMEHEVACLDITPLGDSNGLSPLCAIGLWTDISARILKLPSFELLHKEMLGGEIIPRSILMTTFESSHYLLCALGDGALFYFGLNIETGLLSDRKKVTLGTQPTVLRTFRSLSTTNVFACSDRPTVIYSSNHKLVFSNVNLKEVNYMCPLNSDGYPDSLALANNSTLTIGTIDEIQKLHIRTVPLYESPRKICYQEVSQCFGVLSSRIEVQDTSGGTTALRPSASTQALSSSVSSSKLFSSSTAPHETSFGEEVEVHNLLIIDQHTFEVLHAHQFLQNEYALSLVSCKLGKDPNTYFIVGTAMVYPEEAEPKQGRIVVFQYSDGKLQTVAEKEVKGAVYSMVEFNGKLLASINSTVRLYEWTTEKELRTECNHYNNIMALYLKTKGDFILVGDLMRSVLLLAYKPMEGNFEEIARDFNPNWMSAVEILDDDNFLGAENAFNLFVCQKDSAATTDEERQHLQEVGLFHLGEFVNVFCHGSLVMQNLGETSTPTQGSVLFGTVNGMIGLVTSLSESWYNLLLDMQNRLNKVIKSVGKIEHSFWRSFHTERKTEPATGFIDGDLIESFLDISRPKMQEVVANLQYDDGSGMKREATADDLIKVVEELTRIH
Procedure, shortened: as §1

IKZF1 = molecular target: T3, IKZF1 (Homo sapiens, UniProt Q13422+Q96SW2); experiment: Western blot degradation of IKZF1 in hPBMCs (24 h)
T3 construct: The supernatant was aspirated as the extracted total cell protein; endogenous in cells; host or cells: human peripheral blood mononuclear cells (hPBMCs)
T3 sequence (Q13422 whole entry): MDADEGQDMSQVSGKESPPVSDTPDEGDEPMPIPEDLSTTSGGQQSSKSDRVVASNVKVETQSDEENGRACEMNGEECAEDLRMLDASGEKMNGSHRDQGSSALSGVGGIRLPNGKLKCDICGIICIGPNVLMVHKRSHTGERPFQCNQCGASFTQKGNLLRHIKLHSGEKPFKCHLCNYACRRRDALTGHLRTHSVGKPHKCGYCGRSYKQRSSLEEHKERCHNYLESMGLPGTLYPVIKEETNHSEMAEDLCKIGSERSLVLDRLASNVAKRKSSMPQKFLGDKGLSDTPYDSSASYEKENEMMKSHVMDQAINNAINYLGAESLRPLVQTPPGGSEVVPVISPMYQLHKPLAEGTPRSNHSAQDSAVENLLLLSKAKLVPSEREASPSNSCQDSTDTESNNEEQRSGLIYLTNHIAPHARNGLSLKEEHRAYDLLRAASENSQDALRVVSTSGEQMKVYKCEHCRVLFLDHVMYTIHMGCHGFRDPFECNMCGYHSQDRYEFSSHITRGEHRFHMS
T3 sequence (Q96SW2 whole entry): as the sequence (Q96SW2 whole entry) above
T3 sequence (Q16531 whole entry partner): as the sequence (Q16531 whole entry partner) above
Procedure, shortened: as §1

WEE1 = molecular target: T4, WEE1 (Homo sapiens, UniProt P30291+Q96SW2); experiment: Western blot degradation of WEE1 in hPBMCs (24 h)
T4 construct: The supernatant was aspirated as the extracted total cell protein; endogenous in cells; host or cells: human peripheral blood mononuclear cells (hPBMCs)
T4 sequence (P30291 whole entry): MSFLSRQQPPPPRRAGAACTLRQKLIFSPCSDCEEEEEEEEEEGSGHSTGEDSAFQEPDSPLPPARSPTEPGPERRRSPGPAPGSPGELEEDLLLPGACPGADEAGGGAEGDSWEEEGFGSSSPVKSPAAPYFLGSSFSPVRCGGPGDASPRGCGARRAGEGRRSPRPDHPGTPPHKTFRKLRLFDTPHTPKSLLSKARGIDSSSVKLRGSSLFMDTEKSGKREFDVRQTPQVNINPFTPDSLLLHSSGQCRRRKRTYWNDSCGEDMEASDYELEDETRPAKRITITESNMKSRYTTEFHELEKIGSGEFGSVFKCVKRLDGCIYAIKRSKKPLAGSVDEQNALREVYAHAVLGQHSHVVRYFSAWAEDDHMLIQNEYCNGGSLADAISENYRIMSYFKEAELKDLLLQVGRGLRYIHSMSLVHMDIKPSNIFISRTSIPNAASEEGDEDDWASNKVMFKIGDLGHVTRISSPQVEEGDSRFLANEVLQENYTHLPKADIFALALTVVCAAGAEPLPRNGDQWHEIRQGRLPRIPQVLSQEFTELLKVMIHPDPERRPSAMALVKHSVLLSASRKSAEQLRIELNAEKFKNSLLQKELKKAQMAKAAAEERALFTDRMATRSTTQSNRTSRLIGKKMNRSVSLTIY
T4 sequence (Q96SW2 whole entry): as the sequence (Q96SW2 whole entry) above
T4 sequence (Q16531 whole entry partner): as the sequence (Q16531 whole entry partner) above
Procedure, shortened: as §1

IKZF2 = molecular target: T5, IKZF2 (Homo sapiens, UniProt Q96SW2+Q9UKS7); experiment: Western blot degradation of IKZF2 in hPBMCs (24 h)
T5 construct: The supernatant was aspirated as the extracted total cell protein; endogenous in cells; host or cells: human peripheral blood mononuclear cells (hPBMCs)
T5 sequence (Q9UKS7 whole entry): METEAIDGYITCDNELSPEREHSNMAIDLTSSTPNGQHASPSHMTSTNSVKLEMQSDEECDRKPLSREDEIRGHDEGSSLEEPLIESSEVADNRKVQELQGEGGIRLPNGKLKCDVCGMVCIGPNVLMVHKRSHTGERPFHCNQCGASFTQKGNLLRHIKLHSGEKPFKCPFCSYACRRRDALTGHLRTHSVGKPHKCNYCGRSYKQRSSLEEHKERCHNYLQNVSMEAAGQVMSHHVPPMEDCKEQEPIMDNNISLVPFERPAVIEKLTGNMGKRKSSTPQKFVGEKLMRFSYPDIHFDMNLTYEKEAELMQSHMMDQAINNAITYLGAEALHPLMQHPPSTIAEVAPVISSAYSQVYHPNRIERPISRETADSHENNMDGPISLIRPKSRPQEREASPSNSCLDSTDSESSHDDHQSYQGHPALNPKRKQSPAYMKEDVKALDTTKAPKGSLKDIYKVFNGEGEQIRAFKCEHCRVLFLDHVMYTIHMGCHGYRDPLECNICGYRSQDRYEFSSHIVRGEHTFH
T5 sequence (Q96SW2 whole entry): as the sequence (Q96SW2 whole entry) above
T5 sequence (Q16531 whole entry partner): as the sequence (Q16531 whole entry partner) above
Procedure, shortened: as §1

GSPT1 = molecular target: T6, GSPT1 (Homo sapiens, UniProt P15170+Q96SW2); experiment: Western blot degradation of GSPT1 in hPBMCs (24 h)
T6 construct: The supernatant was aspirated as the extracted total cell protein; endogenous in cells; host or cells: human peripheral blood mononuclear cells (hPBMCs)
T6 sequence (P15170 whole entry): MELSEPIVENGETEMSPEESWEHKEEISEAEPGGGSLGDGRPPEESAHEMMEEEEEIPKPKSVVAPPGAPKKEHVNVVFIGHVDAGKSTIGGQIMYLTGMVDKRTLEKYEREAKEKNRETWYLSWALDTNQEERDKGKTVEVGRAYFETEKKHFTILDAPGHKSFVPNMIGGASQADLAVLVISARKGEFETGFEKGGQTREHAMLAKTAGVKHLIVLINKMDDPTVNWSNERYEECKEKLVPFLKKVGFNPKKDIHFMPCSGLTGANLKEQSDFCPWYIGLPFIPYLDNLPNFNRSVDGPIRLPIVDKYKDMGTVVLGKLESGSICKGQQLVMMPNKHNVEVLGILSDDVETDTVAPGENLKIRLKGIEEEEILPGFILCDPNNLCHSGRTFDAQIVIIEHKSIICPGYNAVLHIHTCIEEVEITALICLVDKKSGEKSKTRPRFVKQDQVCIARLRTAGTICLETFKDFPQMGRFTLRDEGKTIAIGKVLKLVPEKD
T6 sequence (Q96SW2 whole entry): as the sequence (Q96SW2 whole entry) above
T6 sequence (Q16531 whole entry partner): as the sequence (Q16531 whole entry partner) above
Procedure, shortened: as §1

O=C1CCN(N2C(=O)c3ccc(CN4CCN(c5ccc(F)cc5)CC4)cc3C2=O)C(=O)N1 [GT-06725, 2-(2,4-dioxotetrahydropyrimidin-1(2H)-yl)-5-((4-(4-fluorophenyl)piperazin-1-yl)methyl)isoindoline-1,3-dione]
IKZF3 substrate protein remaining % (IKZF3): B (80%< substrate protein remaining % ≤100%)
CK1α substrate protein remaining % (CK1α): B (80%< substrate protein remaining % ≤100%)
IKZF1 substrate protein remaining % (IKZF1): A (0% ≤ substrate protein remaining % ≤80%)
WEE1 substrate protein remaining % (WEE1): B (80%< substrate protein remaining % ≤100%)
IKZF2 substrate protein remaining % (IKZF2): B (80%< substrate protein remaining % ≤100%)
GSPT1 substrate protein remaining % (GSPT1): B (80%< substrate protein remaining % ≤100%)

O=C1CCN(N2C(=O)c3ccc(CN4CCN(c5ccccc5Cl)CC4)cc3C2=O)C(=O)N1 [GT-06726, 5-((4-(2-chlorophenyl)piperazin-1-yl)methyl)-2-(2,4-dioxotetrahydropyrimidin-1(2H)-yl)isoindoline-1,3-dione]
IKZF3 substrate protein remaining % (IKZF3): A (0% ≤ substrate protein remaining % ≤80%)
CK1α substrate protein remaining % (CK1α): A (0% ≤ substrate protein remaining % ≤80%)
IKZF1 substrate protein remaining % (IKZF1): B (80%< substrate protein remaining % ≤100%)
WEE1 substrate protein remaining % (WEE1): A (0% ≤ substrate protein remaining % ≤80%)
IKZF2 substrate protein remaining % (IKZF2): A (0% ≤ substrate protein remaining % ≤80%)
GSPT1 substrate protein remaining % (GSPT1): B (80%< substrate protein remaining % ≤100%)

O=C1CCN(N2C(=O)c3ccc(CN4CCN(c5ccccc5Br)CC4)cc3C2=O)C(=O)N1 [GT-06727, 5-((4-(2-bromophenyl)piperazin-1-yl)methyl)-2-(2,4-dioxotetrahydropyrimidin-1(2H)-yl)isoindoline-1,3-dione]
IKZF3 substrate protein remaining % (IKZF3): A (0% ≤ substrate protein remaining % ≤80%)
CK1α substrate protein remaining % (CK1α): A (0% ≤ substrate protein remaining % ≤80%)
IKZF1 substrate protein remaining % (IKZF1): B (80%< substrate protein remaining % ≤100%)
WEE1 substrate protein remaining % (WEE1): B (80%< substrate protein remaining % ≤100%)
IKZF2 substrate protein remaining % (IKZF2): A (0% ≤ substrate protein remaining % ≤80%)
GSPT1 substrate protein remaining % (GSPT1): B (80%< substrate protein remaining % ≤100%)

COc1ccc(N2CCN(Cc3ccc4c(c3)C(=O)N(N3CCC(=O)NC3=O)C4=O)CC2)cc1 [GT-06728, 2-(2,4-dioxotetrahydropyrimidin-1(2H)-yl)-5-((4-(4-methoxyphenyl)piperazin-1-yl)methyl)isoindoline-1,3-dione]
IKZF3 substrate protein remaining % (IKZF3): A (0% ≤ substrate protein remaining % ≤80%)
CK1α substrate protein remaining % (CK1α): A (0% ≤ substrate protein remaining % ≤80%)
IKZF1 substrate protein remaining % (IKZF1): B (80%< substrate protein remaining % ≤100%)
WEE1 substrate protein remaining % (WEE1): B (80%< substrate protein remaining % ≤100%)
IKZF2 substrate protein remaining % (IKZF2): A (0% ≤ substrate protein remaining % ≤80%)
GSPT1 substrate protein remaining % (GSPT1): B (80%< substrate protein remaining % ≤100%)

COc1ccc(N2CCN(Cc3ccc4c(c3)CN(N3CCC(=O)NC3=O)C4=O)CC2)cc1 [GT-06767, 1-(5-((4-(4-methoxyphenyl)piperazin-1-yl)methyl)-1-oxoisoindolin-2-yl)dihydropyrimidine-2,4(1H,3H)-dione]
IKZF3 substrate protein remaining % (IKZF3): A (0% ≤ substrate protein remaining % ≤80%)
CK1α substrate protein remaining % (CK1α): A (0% ≤ substrate protein remaining % ≤80%)
IKZF1 substrate protein remaining % (IKZF1): A (0% ≤ substrate protein remaining % ≤80%)
WEE1 substrate protein remaining % (WEE1): A (0% ≤ substrate protein remaining % ≤80%)
IKZF2 substrate protein remaining % (IKZF2): A (0% ≤ substrate protein remaining % ≤80%)
GSPT1 substrate protein remaining % (GSPT1): A (0% ≤ substrate protein remaining % ≤80%)

O=C1CCN(N2Cc3cc(CN4CCN(c5ccc(Br)cc5)CC4)ccc3C2=O)C(=O)N1 [GT-06768, 1-(5-((4-(4-bromophenyl)piperazin-1-yl)methyl)-1-oxoisoindolin-2-yl)dihydropyrimidine-2,4(1H,3H)-dione]
IKZF3 substrate protein remaining % (IKZF3): A (0% ≤ substrate protein remaining % ≤80%)
CK1α substrate protein remaining % (CK1α): A (0% ≤ substrate protein remaining % ≤80%)
IKZF1 substrate protein remaining % (IKZF1): B (80%< substrate protein remaining % ≤100%)
WEE1 substrate protein remaining % (WEE1): A (0% ≤ substrate protein remaining % ≤80%)
IKZF2 substrate protein remaining % (IKZF2): B (80%< substrate protein remaining % ≤100%)
GSPT1 substrate protein remaining % (GSPT1): A (0% ≤ substrate protein remaining % ≤80%)

Cc1ccccc1N1CCN(Cc2ccc3c(c2)CN(N2CCC(=O)NC2=O)C3=O)CC1 [GT-06769, 1-(1-oxo-5-((4-(o-tolyl)piperazin-1-yl)methyl)isoindolin-2-yl)dihydropyrimidine-2,4(1H,3H)-dione]
IKZF3 substrate protein remaining % (IKZF3): A (0% ≤ substrate protein remaining % ≤80%)
CK1α substrate protein remaining % (CK1α): A (0% ≤ substrate protein remaining % ≤80%)
IKZF1 substrate protein remaining % (IKZF1): B (80%< substrate protein remaining % ≤100%)
WEE1 substrate protein remaining % (WEE1): A (0% ≤ substrate protein remaining % ≤80%)
IKZF2 substrate protein remaining % (IKZF2): A (0% ≤ substrate protein remaining % ≤80%)
GSPT1 substrate protein remaining % (GSPT1): A (0% ≤ substrate protein remaining % ≤80%)

Cc1ccc(N2CCN(Cc3ccc4c(c3)CN(N3CCC(=O)NC3=O)C4=O)CC2)cc1 [GT-06771, 1-(1-oxo-5-((4-(p-tolyl)piperazin-1-yl)methyl)isoindolin-2-yl)dihydropyrimidine-2,4(1H,3H)-dione]
IKZF3 substrate protein remaining % (IKZF3): A (0% ≤ substrate protein remaining % ≤80%)
CK1α substrate protein remaining % (CK1α): A (0% ≤ substrate protein remaining % ≤80%)
IKZF1 substrate protein remaining % (IKZF1): B (80%< substrate protein remaining % ≤100%)
WEE1 substrate protein remaining % (WEE1): A (0% ≤ substrate protein remaining % ≤80%)
IKZF2 substrate protein remaining % (IKZF2): A (0% ≤ substrate protein remaining % ≤80%)
GSPT1 substrate protein remaining % (GSPT1): A (0% ≤ substrate protein remaining % ≤80%)

O=C1CCN(N2Cc3cc(CN4CCN(c5ccc(Cl)cc5Cl)CC4)ccc3C2=O)C(=O)N1 [GT-06772, 1-(5-((4-(2,4-dichlorophenyl)piperazin-1-yl)methyl)-1-oxoisoindolin-2-yl)dihydropyrimidine-2,4(1H,3H)-dione]
IKZF3 substrate protein remaining % (IKZF3): A (0% ≤ substrate protein remaining % ≤80%)
CK1α substrate protein remaining % (CK1α): A (0% ≤ substrate protein remaining % ≤80%)
IKZF1 substrate protein remaining % (IKZF1): B (80%< substrate protein remaining % ≤100%)
WEE1 substrate protein remaining % (WEE1): A (0% ≤ substrate protein remaining % ≤80%)
IKZF2 substrate protein remaining % (IKZF2): A (0% ≤ substrate protein remaining % ≤80%)
GSPT1 substrate protein remaining % (GSPT1): A (0% ≤ substrate protein remaining % ≤80%)

O=C1CCN(N2Cc3cc(CN4CCN(c5c(Cl)cccc5Cl)CC4)ccc3C2=O)C(=O)N1 [GT-06774, 1-(5-((4-(2,6-dichlorophenyl)piperazin-1-yl)methyl)-1-oxoisoindolin-2-yl)dihydropyrimidine-2,4(1H,3H)-dione]
IKZF3 substrate protein remaining % (IKZF3): A (0% ≤ substrate protein remaining % ≤80%)
CK1α substrate protein remaining % (CK1α): A (0% ≤ substrate protein remaining % ≤80%)
IKZF1 substrate protein remaining % (IKZF1): B (80%< substrate protein remaining % ≤100%)
WEE1 substrate protein remaining % (WEE1): B (80%< substrate protein remaining % ≤100%)
IKZF2 substrate protein remaining % (IKZF2): A (0% ≤ substrate protein remaining % ≤80%)
GSPT1 substrate protein remaining % (GSPT1): A (0% ≤ substrate protein remaining % ≤80%)

O=C1CCN(N2Cc3cc(CN4CCN(c5ccc(Cl)c(Cl)c5)CC4)ccc3C2=O)C(=O)N1 [GT-06775, 1-(5-((4-(3,4-dichlorophenyl)piperazin-1-yl)methyl)-1-oxoisoindolin-2-yl)dihydropyrimidine-2,4(1H,3H)-dione]
IKZF3 substrate protein remaining % (IKZF3): A (0% ≤ substrate protein remaining % ≤80%)
CK1α substrate protein remaining % (CK1α): A (0% ≤ substrate protein remaining % ≤80%)
IKZF1 substrate protein remaining % (IKZF1): B (80%< substrate protein remaining % ≤100%)
WEE1 substrate protein remaining % (WEE1): B (80%< substrate protein remaining % ≤100%)
IKZF2 substrate protein remaining % (IKZF2): A (0% ≤ substrate protein remaining % ≤80%)
GSPT1 substrate protein remaining % (GSPT1): A (0% ≤ substrate protein remaining % ≤80%)

O=C1CCN(N2Cc3cc(CN4CCN(c5ccc(F)cc5F)CC4)ccc3C2=O)C(=O)N1 [GT-06778, 1-(5-((4-(2,4-difluorophenyl)piperazin-1-yl)methyl)-1-oxoisoindolin-2-yl)dihydropyrimidine-2,4(1H,3H)-dione]
IKZF3 substrate protein remaining % (IKZF3): B (80%< substrate protein remaining % ≤100%)
CK1α substrate protein remaining % (CK1α): A (0% ≤ substrate protein remaining % ≤80%)
IKZF1 substrate protein remaining % (IKZF1): B (80%< substrate protein remaining % ≤100%)
WEE1 substrate protein remaining % (WEE1): B (80%< substrate protein remaining % ≤100%)
IKZF2 substrate protein remaining % (IKZF2): B (80%< substrate protein remaining % ≤100%)
GSPT1 substrate protein remaining % (GSPT1): A (0% ≤ substrate protein remaining % ≤80%)

O=C1CCN(N2Cc3cc(CN4CCN(c5cc(F)ccc5F)CC4)ccc3C2=O)C(=O)N1 [GT-06779, 1-(5-((4-(2,5-difluorophenyl)piperazin-1-yl)methyl)-1-oxoisoindolin-2-yl)dihydropyrimidine-2,4(1H,3H)-dione]
IKZF3 substrate protein remaining % (IKZF3): B (80%< substrate protein remaining % ≤100%)
CK1α substrate protein remaining % (CK1α): A (0% ≤ substrate protein remaining % ≤80%)
IKZF1 substrate protein remaining % (IKZF1): B (80%< substrate protein remaining % ≤100%)
WEE1 substrate protein remaining % (WEE1): B (80%< substrate protein remaining % ≤100%)
IKZF2 substrate protein remaining % (IKZF2): B (80%< substrate protein remaining % ≤100%)
GSPT1 substrate protein remaining % (GSPT1): B (80%< substrate protein remaining % ≤100%)
